Assay results from patent US11840560B2, “Prodrugs and uses thereof” (Novo Nordisk A/S, priority 2022, dated 2023).
Marks after values point to notes of the source that are not given here. *1 amine or outer side, *2 acyl side, *3 side chain or, on linkers, in order; H or OH if unused. Where a SMILES comes first, the peptide text is derived from it. Side-chain parts run from the residue outwards. [ ]: non-standard residue; d: D form. The star is where a group is joined. C18 diacid = O=C(O)CCCCCCCCCCCCCCCCC(=O)*; C16 diacid = O=C(O)CCCCCCCCCCCCCCC(=O)*; γGlu = O=C(O)[C@H](CCC(=O)[*:2])N[*:1]; εLys = N[C@@H](CCCCN[*:1])C(=O)[*:2]; AEEA = NCCOCCOCC(=O)O; Aib = CC(C)(N)C(=O)O; Sar = CNCC(=O)O

Legend:
[1] = in vivo; set-up: species or system Göttingen minipigs; conditions: female, Göttingen, minipig, iv
Method: The purpose of this method is to determine the half-life in vivo of the derivatives of the present invention after i.v. administration to minipigs, i.e. the prolongation of their time in the body and thereby their time of action. This is done in a pharmacokinetic (PK) study, where the terminal half-life of the derivative in question is determined. By terminal half-life is generally meant the period of time it takes to halve a certain plasma concentration, measured after the initial distribution phase.
Female Göttingen minipigs were obtained from Ellegaard Göttingen Minipigs (Dalmose, Denmark) approximately 7-14 months of age and weighing from approximately 16-35 kg were used in the studies. The minipigs were housed individually and fed restrictedly once daily with SDS minipig diet (Special Diets Services, Essex, UK).
After at 3 weeks of acclimatisation two permanent central venous catheters were implanted in vena cava caudalis in each animal. The animals were allowed 1 week recovery after the surgery, and were then used for repeated pharmacokinetic studies with a suitable wash-out period between successive derivative dosing.
The animals were fasted for approximately 18 hours before dosing and from 0 to 4 hours after dosing but had ad libitum access to water during the whole period.
The sodium salts of compounds of Examples 1 were prepared using method SX_A under General Methods for preparation of the compounds of the invention. The resulting sodium salts were dissolved to a concentration of 50-300 nmol/mL in a buffer containing 0.007% polysorbate 20, 50 mM sodium phosphate, 70 mM sodium chloride, pH 7.4. Intravenous injections (the volume corresponding to usually 1-20 nmol/kg, for example 0.02-0.05 mL/kg) of the compounds were given through one catheter, and blood was sampled at predefined time points for up to 21 days post dosing (preferably through the other catheter). Blood samples (for example 0.8 mL) were collected in 8 mM EDTA buffer and then centrifuged at 4° C. and 1942 g for 10 minutes.
Plasma was pipetted into Micronic tubes on dry ice and kept at −20° C. until analysed for plasma concentration of the compounds using ELISA, or a similar antibody-based assay, or LCMS. Individual plasma concentration-time profiles were analysed by a non-compartmental model in Phoenix WinNonLin ver. 6.4. (Pharsight Inc., Mountain View, CA, USA), and the resulting terminal half-lives (harmonic mean) determined.
The terminal half-lives and/or the observed terminal half-lives, measured as described herein in General Methods for Measuring Terminal Half-Life in Minipigs are shown in Table 7. […] This provides evidence that conversion of prodrug to parent compound is occurring in vivo. The terminal half-life of the prodrug may be faster or slower than the corresponding parent compound due to the contribution of conversion on the terminal half-life of the prodrug.

[2] = in vivo; set-up: species or system beagle dogs; conditions: dog, po, 300 mg; for Tmax / half-life: male, beagle
Method: The purpose of this method is to determine the terminal half-life and plasma exposure in vivo of the compounds of the present invention after p.o. administration to beagle dogs, i.e. the terminal half-life and concentration of test substance that reaches circulation with time. This is done in a pharmacokinetic (PK) study, where these parameters of the compound in question are determined. By terminal half-life is generally meant the period of time it takes to halve a certain plasma concentration, measured after the initial distribution phase.
Tablet compositions comprising the test compounds obtained from Example 1 and SNAC (sodium N-(8-(2-hydroxybenzoyl)amino)caprylate) were prepared according to methods known to the person skilled in the art by mixing test substance with roller compacted SNAC and magnesium stearate as e.g. described in WO 2019/149880. Each tablet was comprised of 7.7 mg magnesium stearate, 2-4 mg of each compound tested, and 300 mg SNAC.
Male beagle dogs, 1-7 years of age and weighing 9-17 kg during the study period, were included in the study. The dogs were dosed in a fasting state. The dogs were group housed in pens (12 hours light: 12 hours dark), and fed individually and restrictedly once daily with Royal Canin Medium Adult dog food (Royal Canin Products, China Branch, or Brogaarden A/S, Denmark). The dogs were used for repeated PK studies with a suitable wash-out period between successive dosing. An appropriate acclimatisation period was given prior to initiation of the first PK study. All handling, dosing, and blood sampling of the animals were performed by trained and skilled staff. Before the studies, the dogs were fasted overnight and from 0 to 4 hours after dosing. The dogs were restricted to water 1 hour before dosing until 4 hours after dosing, but otherwise had adlibitum access to water during the whole period.
The compositions were administered by a single oral dosing to the dogs in groups of 6-8 dogs. The tablets were administered in the following manner: 10 min prior to tablet administration, the dogs may be dosed subcutaneously with approximately 3 nmol/kg of SEQ ID NO.: 7 ([…]), then tablets were placed in the back of the mouth of the dog to prevent chewing. The mouth was then closed, and 10 mL of tap water was given by syringe or gavage to facilitate swallowing of the tablet.
One blood sample was drawn before dosing, and additional samples were drawn at predefined time points after dosing, such as for up to 600 hours, to adequately cover the full plasma concentration-time absorption profile of the test substance. For each blood sample time point, approximately 0.8 mL of whole blood was collected in a 1.5 mL EDTA-coated tube, which was gently turned to mix the sample with EDTA. Blood samples were collected in EDTA buffer (8 mM) and then centrifuged at 4° C. and 2000 g for 10 minutes. Plasma was pipetted into Micronic tubes on dry ice, and kept at −20° C. or lower until analysis. Blood samples were taken as appropriate, for example from a venflon in the cephalic vein in the front leg for the first 2 hours and then with syringe from the jugular vein for the rest of the time points. The first few drops were allowed to drain from the venflon to avoid heparin saline from the venflon in the sample. All blood samples were collected into test tubes containing EDTA for stabilisation and kept on ice until centrifugation. Plasma was separated from whole blood by centrifugation and the plasma was stored at −20° C. or lower until analysis.
The plasma was analysed for test substance using LC-MS (Liquid Chromatography-Mass Spectrometry) as known to the person skilled in the art. […]

[3] = physchem; type: physicochemical; conditions: buffer, pH 7.4
Method: The assay was performed to investigate the conversion half-life of prodrug to drug of the prodrugs of the invention. The conversion half-life was investigated in vitro at pH 7.4 upon incubation at 37° C.
Test compounds were dissolved to a concentration of 100 μM in phosphate-buffered saline (140 mM NaCl, 2.07 mM KCl, 8.05 mM Na2HPO4, 1.96 mM KH2PO4, pH 7.4). Solution pH was measured after dissolution and adjusted to pH 7.4 with aqueous NaOH if necessary. The solution was filtered through a 0.22 μm syringe filter, then incubated in a water bath at 37° C. Aliquots were withdrawn at defined timepoints, e.g. every 24-72 hours, for LCMS analysis.
LCMS analysis was performed using the procedure defined in LCMS_A above. The AUC of the prodrug, active drug, and DKP were determined using UV detection at 214 nm, and the ratio of prodrug AUC over total AUC of prodrug plus active drug plus DKP was calculated. The negative natural logarithm of this ratio was plotted over time, and a linear regression of this relationship was then performed.
The prodrug to drug conversion half-life of the compounds of the invention was measured as described in General Methods for Measuring Conversion Half-life.

CC[C@H](C)[C@H](NC(=O)[C@H](Cc1ccccc1)NC(=O)[C@H](CCC(=O)O)NC(=O)[C@H](CCCNC(=N)N)NC(=O)[C@H](C)NC(=O)[C@H](C)NC(=O)[C@H](CCC(N)=O)NC(=O)[C@H](CCC(=O)O)NC(=O)[C@H](CCC(=O)O)NC(=O)[C@H](CC(C)C)NC(=O)[C@H](CC(C)C)NC(=O)[C@@H](NC(=O)[C@H](CO)NC(=O)[C@H](Cc1ccc(O)cc1)NC(=O)[C@H](CC(=O)O)NC(=O)[C@H](CO)NC(=O)[C@@H](NC(=O)[C@H](Cc1ccccc1)NC(=O)[C@@H](NC(=O)CNC(=O)[C@H](CCC(=O)O)NC(=O)C(C)(C)NC(=O)[C@@H](N)Cc1ccc(O)cc1)[C@@H](C)O)[C@@H](C)O)[C@@H](C)CC)C(=O)N[C@@H](CCC(=O)O)C(=O)N[C@@H](Cc1c[nH]c2ccccc12)C(=O)N[C@@H](CC(C)C)C(=O)N[C@@H](CC(C)C)C(=O)N[C@@H](C)C(=O)NCC(=O)NCC(=O)N1CCC[C@H]1C(=O)N[C@@H](CO)C(=O)N[C@@H](CCCCNC(=O)COCCOCCNC(=O)COCCOCCNC(=O)CC[C@H](NC(=O)CCCCCCCCCCCCCCC(=O)O)C(=O)O)C(=O)NCC(=O)N[C@@H](C)C(=O)N1CCC[C@H]1C(=O)N1CCC[C@H]1C(=O)N1CCC[C@H]1C(=O)N[C@@H](CO)C(=O)O [Parent compound 1] (H-Y[Aib]EGTFTSDYSILLEEQAAREFIEWLLAGGPSK([AEEA-AEEA-γGlu-C16 diacid])GAPPPS-OH)
half-life [1]: 121 h
AUC/Dose [2]: 60.7 kg·h/L
Cmax/Dose [2]: 0.67 kg/L
Tmax [2]: 1.5 h
half-life [2]: 104 h

CC[C@H](C)[C@H](NC(=O)[C@H](Cc1ccccc1)NC(=O)[C@H](CCC(=O)O)NC(=O)[C@H](CCCNC(=N)N)NC(=O)[C@H](C)NC(=O)[C@H](C)NC(=O)[C@H](CCC(N)=O)NC(=O)[C@H](CCCCNC(=O)[C@@H](N)CCCCNC(=O)[C@@H](N)CCCCNC(=O)CC[C@H](NC(=O)CCCCCCCCCCCCCCCCC(=O)O)C(=O)O)NC(=O)[C@H](CCC(=O)O)NC(=O)[C@H](CC(C)C)NC(=O)[C@H](CC(C)C)NC(=O)[C@@H](NC(=O)[C@H](CO)NC(=O)[C@H](Cc1ccc(O)cc1)NC(=O)[C@H](CC(=O)O)NC(=O)[C@H](CO)NC(=O)[C@@H](NC(=O)[C@H](Cc1ccccc1)NC(=O)[C@@H](NC(=O)CNC(=O)[C@H](CCC(=O)O)NC(=O)C(C)(C)NC(=O)[C@@H](N)Cc1ccc(O)cc1)[C@@H](C)O)[C@@H](C)O)[C@@H](C)CC)C(=O)N[C@@H](CCC(=O)O)C(=O)N[C@@H](Cc1c[nH]c2ccccc12)C(=O)N[C@@H](CC(C)C)C(=O)N[C@@H](CC(C)C)C(=O)N[C@@H](C)C(=O)NCC(=O)NCC(=O)N1CCC[C@H]1C(=O)N[C@@H](CO)C(=O)N[C@@H](CO)C(=O)NCC(=O)N[C@@H](C)C(=O)N1CCC[C@H]1C(=O)N1CCC[C@H]1C(=O)N1CCC[C@H]1C(=O)N[C@@H](CO)C(=O)O [Parent compound 4] (H-Y[Aib]EGTFTSDYSILLEK([εLys-εLys-γGlu-C18 diacid])QAAREFIEWLLAGGPSSGAPPPS-OH)
half-life [1]: 106 h
AUC/Dose [2]: 17.9* kg*h/L
Cmax/Dose [2]: 0.35* kg/L

H-K([Gly-γGlu-C16 diacid])[Sar]Y[Aib]EGTFTSDYSILLEEQAAREFIEWLLAGGPSK([AEEA-AEEA-γGlu-C16 diacid])GAPPPS-OH [Compound 9]
half-life at 100 μM [3]: 132 h
half-life [1]: 102 h

H-K([γGlu-C16 diacid])VY[Aib]EGTFTSDYSILLEEQAAREFIEWLLAGGPSK([AEEA-AEEA-γGlu-C16 diacid])GAPPPS-OH [Non-converting compound 1]
half-life [1]: 170 h
AUC/Dose [2]: 20.1 kg·h/L
Cmax/Dose [2]: 0.21 kg/L
Tmax [2]: 1.5 h
half-life [2]: 137 h

H-K([γGlu-C16 diacid])[Sar]Y[Aib]EGTFTSDYSILLEEQAAREFIEWLLAGGPSK([AEEA-AEEA-γGlu-C16 diacid])GAPPPS-OH [Compound 3]
half-life at 100 μM [3]: 111 h
half-life [1]: 119 h
AUC/Dose [2]: 38.5 kg·h/L
Cmax/Dose [2]: 0.32 kg/L
Tmax [2]: 7 h
half-life [2]: 139 h

H-[dK]([AEEA-AEEA-γGlu-C16 diacid])[Sar]Y[Aib]EGTFTSDYSILLEEQAAREFIEWLLAGGPSK([AEEA-AEEA-γGlu-C16 diacid])GAPPPS-OH [Compound 10]
half-life at 100 μM [3]: 195 h
half-life [1]: 118 h

H-[dK]([γGlu-C16 diacid])[Sar]Y[Aib]EGTFTSDYSILLEEQAAREFIEWLLAGGPSK([AEEA-AEEA-γGlu-C16 diacid])GAPPPS-OH [Compound 1]
half-life at 100 μM [3]: 244 h
half-life [1]: 118 h
AUC/Dose [2]: 41.2 kg·h/L
Cmax/Dose [2]: 0.66 kg/L
Tmax [2]: 4 h
half-life [2]: 146 h
